Measurements from ChEMBL document CHEMBL1201862, “PubChem BioAssay data set” (2004).
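Cultured in 96-well plates, cells were exposed to test compound for 48 hours across five concentrations. The concentration for 50% growth inhibition is given as GI50.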 Activity calls are given as the source filed them. No stated cut-off is given here; in the data, active = GI50 up to about 1.1 µM and inactive = higher.

Columns and labels:
Experiment in all cases: inhibition of tumour cell growth, NCI panel, 48 h
[1] = tested on: A549
[2] = tested on: OVCAR-4
[3] = tested on: RXF 631
[4] = tested on: NCI-H460
[5] = tested on: CAKI-1
[6] = tested on: SNB-19
[7] = tested on: 786-0
[8] = tested on: SNB-78
[9] = tested on: OVCAR-8
[10] = tested on: SK-MEL-2
[11] = tested on: IGROV-1
[12] = tested on: HOP-62
[13] = tested on: HL-60
[14] = tested on: MOLT-4
[15] = tested on: M14
[16] = tested on: SN12C
[17] = tested on: DMS-273
[18] = tested on: TK-10
[19] = tested on: M19-MEL
[20] = tested on: XF498
[21] = tested on: U-251
[22] = tested on: K562
[23] = tested on: SF-295
[24] = tested on: HCT-15
[25] = tested on: UO-31
[26] = tested on: COLO 205
[27] = tested on: RPMI-8226
[28] = tested on: SW-620
[29] = tested on: ACHN
[30] = tested on: NCI-H23
[31] = tested on: OVCAR-3
[32] = tested on: HOP-18
[33] = tested on: UACC-257
[34] = tested on: HT-29
[35] = tested on: HCT-116
[36] = tested on: HOP-92
[37] = tested on: UACC-62
[38] = tested on: KM-20L2
[39] = tested on: SK-OV-3
[40] = tested on: DMS-114
[41] = tested on: SK-MEL-5
[42] = tested on: EKVX
[43] = tested on: DLD-1
[44] = tested on: SNB-75
[45] = tested on: SF-539
[46] = tested on: LOX IMVI
[47] = tested on: SK-MEL-28
[48] = tested on: RXF 393
[49] = tested on: Malme-3M
[50] = tested on: CCRF-CEM
[51] = tested on: SR
[52] = tested on: SF-268
[53] = tested on: NCI-H226
[54] = tested on: NCI-H522
[55] = tested on: A498
[56] = tested on: KM12
[57] = tested on: HCC 2998
[58] = tested on: LXFL 529
[59] = tested on: OVCAR-5

With `CC1C=C(OC(=O)c2ccccc2)C(=O)C(n2cc(F)c(=O)n(C(=O)c3ccccc3)c2=O)O1` (stereo not given) the GI50 [1] was > 100 µM (inactive), the GI50 [2] was 52.2 µM (inactive) and the GI50 [3] was 52 µM (inactive). For the same molecule, the GI50 [4] was > 100 µM (inactive), the GI50 [5] was 32.4 µM (inactive) and the GI50 [6] was > 100 µM (inactive). The GI50 [7] was 28.5 µM (inactive), the GI50 [8] was 51.2 µM (inactive) and the GI50 [9] was 37.2 µM (inactive). For the same molecule, the GI50 [10] was 45.3 µM (inactive), the GI50 [11] was > 100 µM (inactive) and the GI50 [12] was > 100 µM (inactive). The GI50 [13] was 23.9 µM (inactive), the GI50 [14] was 32.7 µM (inactive) and the GI50 [15] was 51.3 µM (inactive). For the same molecule, the GI50 [16] was 53.1 µM (inactive), the GI50 [17] was 37.4 µM (inactive) and the GI50 [18] was 69.3 µM (inactive). For the same molecule, the GI50 [19] was 39.3 µM (inactive), the GI50 [20] was 21.8 µM (inactive) and the GI50 [21] was 37.3 µM (inactive). For the same molecule, the GI50 [22] was 25.4 µM (inactive), the GI50 [23] was 78 µM (inactive) and the GI50 [24] was 32.5 µM. The GI50 [25] was 93.3 µM (inactive), the GI50 [26] was 26.9 µM (inactive) and the GI50 [27] was 38.1 µM (inactive). For the same molecule, the GI50 [28] was 34.3 µM (inactive), the GI50 [29] was 50.5 µM (inactive) and the GI50 [30] was 43 µM (inactive). The GI50 [31] was 22.9 µM (inactive), the GI50 [32] was > 100 µM (inactive) and the GI50 [33] was 70.1 µM (inactive). For the same molecule, the GI50 [34] was 34.7 µM (inactive), the GI50 [35] was 32.1 µM (inactive) and the GI50 [36] was 35.6 µM (inactive). For the same molecule, the GI50 [37] was 35.3 µM (inactive), the GI50 [38] was 32.1 µM (inactive) and the GI50 [39] was > 100 µM (inactive). For the same molecule, the GI50 [40] was 42.1 µM (inactive), the GI50 [41] was 73.8 µM (inactive) and the GI50 [42] was > 100 µM (inactive). For the same molecule, the GI50 [43] was 41.6 µM (inactive), the GI50 [44] was 49.2 µM (inactive) and the GI50 [45] was 89.5 µM (inactive). The GI50 [46] was 23.1 µM (inactive), the GI50 [47] was 46.8 µM (inactive) and the GI50 [48] was 33.3 µM (inactive). The GI50 [49] was 31 µM (inactive) and the GI50 [50] was 18.1 µM (inactive).
In the case of `O=c1ccn(C2(CO)C=C(CO)C(O)C2O)c(=O)[nH]1` (stereo not given), the GI50 [1] is reported as > 25.7 µM (inactive), the GI50 [51] is reported as > 25.7 µM (inactive) and the GI50 [52] is reported as > 25.7 µM (inactive). The GI50 [2] was > 25.7 µM (inactive), the GI50 [3] was > 25.7 µM (inactive) and the GI50 [53] was > 25.7 µM (inactive). The GI50 [4] was > 25.7 µM (inactive), the GI50 [5] was > 25.7 µM (inactive) and the GI50 [6] was > 25.7 µM (inactive). The GI50 [7] was > 25.7 µM (inactive), the GI50 [8] was > 25.7 µM (inactive) and the GI50 [9] was > 25.7 µM (inactive). For the same molecule, the GI50 [10] was > 25.7 µM (inactive), the GI50 [54] was > 25.7 µM (inactive) and the GI50 [11] was > 25.7 µM (inactive). The GI50 [12] was > 25.7 µM (inactive), the GI50 [13] was > 25.7 µM (inactive) and the GI50 [14] was > 25.7 µM (inactive). For the same molecule, the GI50 [15] was > 25.7 µM (inactive), the GI50 [16] was > 25.7 µM (inactive) and the GI50 [17] was > 25.7 µM (inactive). The GI50 [18] was > 25.7 µM (inactive), the GI50 [19] was > 25.7 µM (inactive) and the GI50 [21] was > 25.7 µM (inactive). The GI50 [22] was > 25.7 µM (inactive), the GI50 [24] was > 25.7 µM and the GI50 [25] was > 25.7 µM (inactive). For the same molecule, the GI50 [55] was > 25.7 µM (inactive), the GI50 [26] was > 25.7 µM (inactive) and the GI50 [27] was > 25.7 µM (inactive). The GI50 [28] was > 25.7 µM (inactive), the GI50 [29] was > 25.7 µM (inactive) and the GI50 [31] was > 25.7 µM (inactive). The GI50 [32] was > 25.7 µM (inactive), the GI50 [33] was > 25.7 µM (inactive) and the GI50 [35] was > 25.7 µM (inactive). The GI50 [37] was > 25.7 µM (inactive), the GI50 [38] was > 25.7 µM (inactive) and the GI50 [56] was > 25.7 µM (inactive). For the same molecule, the GI50 [39] was > 25.7 µM (inactive), the GI50 [40] was > 25.7 µM (inactive) and the GI50 [41] was > 25.7 µM (inactive). The GI50 [57] was > 25.7 µM (inactive), the GI50 [42] was > 25.7 µM (inactive) and the GI50 [43] was > 25.7 µM (inactive). The GI50 [44] was > 25.7 µM (inactive), the GI50 [45] was > 25.7 µM (inactive) and the GI50 [58] was > 25.7 µM (inactive). The GI50 [47] was > 25.7 µM (inactive), the GI50 [48] was > 25.7 µM (inactive) and the GI50 [49] was > 25.7 µM (inactive).
For `O=C1c2ccccc2C(=O)N1CCn1nc(-c2ccccc2)cc(-c2ccccc2)c1=O`, the GI50 [1] was 61.5 µM (inactive), the GI50 [51] was 5.4 µM (inactive) and the GI50 [52] was > 100 µM (inactive). The GI50 [59] was > 100 µM (inactive), the GI50 [2] was 42.1 µM (inactive) and the GI50 [3] was 27.7 µM (inactive). For the same molecule, the GI50 [53] was 50.1 µM (inactive), the GI50 [4] was 26.2 µM (inactive) and the GI50 [6] was > 100 µM (inactive). The GI50 [7] was > 100 µM (inactive), the GI50 [8] was > 100 µM (inactive) and the GI50 [9] was 33.3 µM (inactive). For the same molecule, the GI50 [10] was 82 µM (inactive), the GI50 [54] was 18.6 µM (inactive) and the GI50 [11] was 74.8 µM (inactive). For the same molecule, the GI50 [12] was > 100 µM (inactive), the GI50 [13] was 8.51 µM (inactive) and the GI50 [14] was 26.4 µM (inactive). For the same molecule, the GI50 [15] was > 100 µM (inactive), the GI50 [16] was 44.6 µM (inactive) and the GI50 [17] was 49.5 µM (inactive). The GI50 [19] was 69.3 µM (inactive), the GI50 [21] was 71.1 µM (inactive) and the GI50 [22] was 18.2 µM (inactive). For the same molecule, the GI50 [23] was 56 µM (inactive), the GI50 [24] was 38.2 µM and the GI50 [25] was 18.9 µM (inactive). The GI50 [26] was 63.2 µM (inactive), the GI50 [27] was 5.41 µM (inactive) and the GI50 [28] was > 100 µM (inactive). The GI50 [29] was 34.7 µM (inactive), the GI50 [30] was 43.2 µM (inactive) and the GI50 [31] was 27.2 µM (inactive). For the same molecule, the GI50 [32] was 42.6 µM (inactive), the GI50 [33] was > 100 µM (inactive) and the GI50 [34] was 52.6 µM (inactive). The GI50 [35] was 66.8 µM (inactive), the GI50 [36] was 37.8 µM (inactive) and the GI50 [37] was 51.2 µM (inactive). The GI50 [38] was > 100 µM (inactive), the GI50 [56] was > 100 µM (inactive) and the GI50 [39] was > 100 µM (inactive). For the same molecule, the GI50 [40] was > 100 µM (inactive), the GI50 [41] was 52.5 µM (inactive) and the GI50 [57] was 67.8 µM (inactive). The GI50 [42] was 51.5 µM (inactive), the GI50 [43] was > 100 µM (inactive) and the GI50 [44] was 46.7 µM (inactive). For the same molecule, the GI50 [45] was > 100 µM (inactive), the GI50 [58] was 52.2 µM (inactive) and the GI50 [47] was > 100 µM (inactive). The GI50 [48] was > 100 µM (inactive), the GI50 [49] was > 100 µM (inactive) and the GI50 [50] was 23.2 µM (inactive).
